Assay results reported in US12012391B1, “9-(2-hydroxyquinoline-3-yl)-10-[3-(dimethylamino)propyl]-3,4,6,7,9,10-hexahydroacridine-1,8(2H,5H)-dione as an antimicrobial compound” (KING FAISAL UNIVERSITY, priority 2023, dated 2024).

Assays:
Conditions in all cases: after 10, 20, 40 and 60 minutes at all dilutions 1:100 to 1:800
[1] = tested on: St. aereus; test: Antimicrobial activity by agar dilution, St. aereus; type: cell-based, Staphylococcus aureus
Procedure: (§1) The antimicrobial properties of the synthesized compound 9-(2-hydroxyquinoline-3-yl)-10-[3-(dimethylamino)propyl]-3,4,6,7,9,10-hexahydroacridine-1,8(2H,5H)-dione were studied by the method of agar dilution. Test solutions of each compound were prepared in a concentration of 1% using dimethylformamide as a solvent. Then they were diluted in a physiological solution to obtain the final experimental dilutions 1:100, 1:200, 1:400, and 1:800. The effect of these substances were compared with furacillin in a controllable study. The testing microbes used were gram positive bacteria St. aereus, gram negative bacteria E. Coli and Ps. aeruginosa, and Candida albicans fungi. The experiments used for this survey were meat-pentonlu agar (EPA) for cultivation of bacteria and Saburo environment for fungi. Each experiment used 1 ml of test solution on each plate 500 min. Add 2 drops of emulsified with microbes feel. All experimental samples were taken from the agar after 10, 20, 40, 60 minutes in the environment on the basis of Patrk planted. Bacteria were cultivated at a temperature of 37° C. for 1 day and the mushroom was kept in a thermostat for […] at a temperature of 28° C. Then the results were checked.

[2] = tested on: Ps. aeruginosa; test: Antimicrobial activity by agar dilution, Ps. aeruginosa; type: cell-based, Pseudomonas aeruginosa
Procedure: as §1

[3] = tested on: Candida albicans; test: Antimicrobial activity by agar dilution, Candida albicans; type: cell-based
Procedure: as §1

[4] = tested on: E. Coli; test: Antimicrobial activity by agar dilution, E. Coli; type: cell-based, Escherichia coli
Procedure: as §1

Measured: inhibition activity

CN(C)CCCN1C2=C(C(=O)CCC2)C(c2cc3ccccc3nc2O)C2=C1CCCC2=O [9-(2-hydroxyquinoline-3-yl)-10-[3-(dimethylamino)propyl]-3,4,6,7,9,10-hexahydroacridine-1,8(2H,5H)-dione]
highest inhibition activity: all assays above
